Key:
Conditions in all cases: 100 mM KCl, 5 mM MgCl2, 20 mM Hepes pH 7.5, 25 °C; CBS domain nucleotide site
TpCorC CBS domain [1] = target: TpCorC CBS domain (Thermus parvatiensis, UniProt A0A109QFA5)
TpCorC CBS domain [2] = target: TpCorC CBS domain (Thermus parvatiensis, UniProt A0A109QFA5, T336I)
TpCorC CBS domain [3] = target: TpCorC CBS domain (Thermus parvatiensis, UniProt A0A109QFA5, Y255A)
Sequence of TpCorC CBS domain (Thermus parvatiensis, UniProt A0A109QFA5, Y255A) (A0A109QFA5 202-361 Y255A limits assumed): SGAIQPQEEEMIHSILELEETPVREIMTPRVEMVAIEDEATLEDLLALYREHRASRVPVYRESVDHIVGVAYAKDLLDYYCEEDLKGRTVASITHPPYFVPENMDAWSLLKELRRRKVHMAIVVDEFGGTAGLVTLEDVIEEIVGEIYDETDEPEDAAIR

Sequence of TpCorC CBS domain (Thermus parvatiensis, UniProt A0A109QFA5, T336I) (A0A109QFA5 202-361 T336I limits assumed): as the sequence (A0A109QFA5 202-361 Y255A limits assumed) above, with A54Y, T135I counted along it
Sequence of TpCorC CBS domain (Thermus parvatiensis, UniProt A0A109QFA5) (A0A109QFA5 202-361 limits assumed): as the sequence (A0A109QFA5 202-361 Y255A limits assumed) above, with A54Y counted along it

Kd (TpCorC CBS domain [1]): 460 nM
Kd (TpCorC CBS domain [2]): 9400 nM
Kd (TpCorC CBS domain [3]): 2800 nM
SMILES: Nc1ncnc2c1ncn2[C@@H]1O[C@H](COP(=O)(O)OP(=O)(O)OP(=O)(O)O)[C@@H](O)[C@H]1O [ATP]

Source: publication PMC7875539 (Science Advances, 2021)
